# Experimental data reported in patent US8084046B2 (priority 2001, dated 2011).
# “And” between values parts separate entries of the source, which are not always exact repeats. Equal entries are not always repeated. Where two headings read alike, the source gives them in different places.
# How the values were obtained:
# Assay type in all cases: cell-based
# S. aureus (MN8) [1] = settings: 24 h
# S. aureus MN8 [2] = system: S. aureus MN8; parameters: ngTSST-1 per CFU: scale not given here; settings: for % Reduction / ngTSST-1 per CFU: terpineol 0%
# S. aureus MN8 [3] = system: S. aureus MN8
# S. aureus (MN8) [4] = system: S. aureus (MN8)
molecule,measurement,setting,value
CC(C)=CCC/C(C)=C/CO [Geraniol],ng TSST-1 per OD Unit,S. aureus (MN8) [1],26
myreth-3-myristate [Cetiol],ng TSST-1 per mL,S. aureus MN8 [2],1147 and 989 and 1556
same,% Reduction,S. aureus MN8 [2]; Cetiol 2.5 mM,0%
same,ngTSST-1 per CFU,S. aureus MN8 [2]; Cetiol 2.5 mM,371 ng per CFU
same,% Reduction,S. aureus MN8 [2]; Cetiol 5.0 mM,39%
same,ngTSST-1 per CFU,S. aureus MN8 [2]; Cetiol 5.0 mM,196 ng per CFU
same,% Reduction,S. aureus MN8 [2]; Cetiol 10.0 mM,37%
same,ngTSST-1 per CFU,S. aureus MN8 [2]; Cetiol 10.0 mM,200 ng per CFU
same,% CFU/mL × 10^6,S. aureus MN8 [3],5.9 and 5.0 and 4.2
CC1CCC(C(C)C)C(O)C1 (stereo not shown) [Menthol],effect on the growth of S. aureus cells,S. aureus (MN8) [4],"minimal, if any, effect on the growth of S. aureus cells"
same,ng TSST-1 per OD Unit,S. aureus (MN8) [1],33
"CC1(O)CCC(C(C)(C)O)CC1 (stereo not shown) [p-menthane-1,8-diol]",ng TSST-1 per OD Unit,S. aureus (MN8) [1],792
C=CC(C)(O)CCC=C(C)C (stereo not shown) [Linalool],ng TSST-1 per OD Unit,S. aureus (MN8) [1],421
